The record followed here is ChEMBL document CHEMBL3217538, “Antimycobacterial activity of spirooxindolo-pyrrolidine, pyrrolizine and pyrrolothiazole hybrids obtained by a three-component regio- and stereoselective 1,3-dipolar cycloaddition” (2011).

Values after ≈ are worked out from the molar mass of the structure shown. A value given as a limit tells only on which side of the number the result lay.

The test system of experiment [1] is Mycobacterium tuberculosis. Put plainly: Antimycobacterial activity against Mycobacterium tuberculosis H37Rv by agar dilution method. In kind it is functional.
The test system of experiment [2] is Mycobacterium tuberculosis. Put plainly: Ratio of pyrazinamide MIC99 to compound MIC99 for Mycobacterium tuberculosis H37Rv. In kind it is functional.

For `COc1ccc(C2C([N+](=O)[O-])C3CCCN3[C@@]23C(=O)Nc2ccccc23)cc1` (stereo partly drawn), in experiment [1], the MIC99 came to 65.9 µM (≈ 25 µg/mL). With `COc1ccc(OC)c(C2C([N+](=O)[O-])C(c3ccccc3)N[C@@]23C(=O)Nc2ccccc23)c1` (stereo partly drawn), in experiment [1], the MIC99 is over 56.1 µM. In the case of `O=C1Nc2ccccc2[C@@]12C(c1ccc(Br)cc1)C([N+](=O)[O-])C1CCCN12` (stereo partly drawn), the MIC99 in experiment [1] was found to be 58.4 µM (≈ 25 µg/mL). In turn, `O=C1Nc2ccccc2[C@@]12C(c1ccc(Cl)cc1)C([N+](=O)[O-])C1CSCN12` (stereo partly drawn) displayed an MIC99 in experiment [1] of 15.5 µM (≈ 6.23 µg/mL). For the same compound, the Ratio in experiment [2] is reported as 3.3. For `O=C1Nc2ccccc2[C@]12NC(c1ccccc1)C([N+](=O)[O-])C2c1cccc(Cl)c1` (stereo partly drawn) the same measures were 14.9 µM (≈ 6.26 µg/mL) and 3.4. `O=C1Nc2ccccc2[C@]12NC(c1ccccc1)C([N+](=O)[O-])C2c1ccccc1` (stereo partly drawn) had an MIC99 in experiment [1] of over 64.9 µM. In the case of `Cc1ccc(C2C([N+](=O)[O-])C3CCCN3[C@@]23C(=O)Nc2ccccc23)cc1` (stereo partly drawn), in experiment [1], the MIC99 came out at 68.8 µM (≈ 25 µg/mL). Same read-out and setting: as for `O=C1Nc2ccccc2[C@@]12C(c1cccc([N+](=O)[O-])c1)C([N+](=O)[O-])C1CCCN12` (stereo partly drawn), the figure is 63.4 µM (≈ 25 µg/mL); as for `O=C1Nc2ccccc2[C@@]12C(c1ccc(F)cc1)C([N+](=O)[O-])C1CCCN12` (stereo partly drawn), 68.1 µM (≈ 25 µg/mL).

For `O=C1Nc2ccccc2[C@@]12C(c1cccc(Cl)c1)C([N+](=O)[O-])C1CSCN12` (stereo partly drawn), the MIC99 in experiment [1] turned out to be 7.8 µM (≈ 3.13 µg/mL). In addition, the Ratio in experiment [2] turned out to be 6.5. In experiment [1], `O=C1Nc2ccccc2[C@]12NC(c1ccccc1)C([N+](=O)[O-])C2c1cccc([N+](=O)[O-])c1` (stereo partly drawn) showed an MIC99 of 29 µM (≈ 12.5 µg/mL). In experiment [2], the Ratio came to 1.75. On the same counts, the results for `O=C1Nc2ccccc2[C@@]12C(c1cccc(Cl)c1)C([N+](=O)[O-])C1CCCN12` (stereo partly drawn) are 32.6 µM (≈ 12.5 µg/mL) and 1.6. In experiment [1], `COc1cc(C2C([N+](=O)[O-])C3CCCN3[C@@]23C(=O)Nc2ccccc23)cc(OC)c1OC` (stereo partly drawn) gave an MIC99 of over 56.9 µM. Still for that read-out and setting: next, `CC[C@@H](CO)NCCN[C@@H](CC)CO` [ETHAMBUTOL]: 7.6 µM (≈ 1.55 µg/mL); `NC(=O)c1cnccn1` [PYRAZINAMIDE]: 50.1 µM (≈ 6.17 µg/mL); `COc1ccc(OC)c(C2C([N+](=O)[O-])C3CCCN3[C@@]23C(=O)Nc2ccccc23)c1` (stereo partly drawn): over 61.1 µM. On the same count and under the same terms, as for `Cc1ccc(C2C([N+](=O)[O-])C(c3ccccc3)N[C@@]23C(=O)Nc2ccccc23)cc1` (stereo partly drawn), the figure is over 62.6 µM. Still for that read-out and setting: as for `COc1ccc(C2C([N+](=O)[O-])C3CSCN3[C@@]23C(=O)Nc2ccccc23)cc1` (stereo partly drawn), the figure is 62.9 µM (≈ 25 µg/mL). In turn, `O=C1Nc2ccccc2[C@@]12C(c1cccc([N+](=O)[O-])c1)C([N+](=O)[O-])C1CSCN12` (stereo partly drawn) came in with an MIC99 in experiment [1] of 7.6 µM (≈ 3.13 µg/mL). Also, the Ratio in experiment [2] turned out to be 6.7. For `O=C1Nc2ccccc2[C@@]12C(c1ccc(Cl)cc1)C([N+](=O)[O-])C1CCCN12` (stereo partly drawn) the same measures were 32.6 µM (≈ 12.5 µg/mL) and 1.6. On the same counts, the results for `O=C1Nc2ccccc2[C@]12NC(c1ccccc1)C([N+](=O)[O-])C2c1ccc(Br)cc1` (stereo partly drawn) are 26.9 µM (≈ 12.5 µg/mL) and 1.9.

Regarding `O=C1Nc2ccccc2[C@]12NC(c1ccccc1)C([N+](=O)[O-])C2c1ccc(F)cc1` (stereo partly drawn), the MIC99 in experiment [1] amounted to 31 µM (≈ 12.5 µg/mL). Further, the Ratio in experiment [2] amounted to 1.6. For the compound `O=C1Nc2ccccc2[C@@]12C(c1ccccc1)C([N+](=O)[O-])C1CCCN12` (stereo partly drawn), the MIC99 in experiment [1] came to 71.6 µM (≈ 25 µg/mL).

`O=C1Nc2ccccc2[C@@]12C(c1ccc(F)cc1)C([N+](=O)[O-])C1CSCN12` (stereo partly drawn) yielded an MIC99 in experiment [1] of 8.2 µM (≈ 3.16 µg/mL). In experiment [2], the Ratio turned out to be 6.2.

`O=C1Nc2ccccc2[C@]12NC(c1ccccc1)C([N+](=O)[O-])C2c1ccc(Cl)cc1` (stereo partly drawn): the MIC99 in experiment [1] was 29.8 µM (≈ 12.5 µg/mL). Also, the Ratio in experiment [2] came to 1.7. In experiment [1], `NNC(=O)c1ccncc1` [ISONIAZID] gave an MIC99 of 0.4 µM (≈ 0.0549 µg/mL). `COc1ccc(C2C([N+](=O)[O-])C(c3ccccc3)N[C@@]23C(=O)Nc2ccccc23)cc1` (stereo partly drawn): the MIC99 in experiment [1] is over 60.2 µM.
